Experimental data as given in US6391571B1, “Recombinant inactive avidin mutants” (Roche Diagnostics GmbH, priority 1997, dated 2002).

Experiments:
[1] = native polypeptide, non-covalent complex with biotin; cited from earlier work
[2] = system: monobiotinylated Fab' antibody fragment; assay: Affinity of streptavidin muteins to biotin derivatives, BIAcore system; type: binding; details: CM5 biosensor, 25° C.
Description: The affinity of the streptavidin muteins to biotin derivatives (constants Kon, Koff and KA) was determined in comparison to core streptavidin (wild type streptavidin) using the BIAcore system from the Pharmacia Co. For this the respective streptavidin samples were immobilized on the surface of biosensor chips (CM5 biosensor). The surface loading was selected in such a way that a measurement signal of 500 to 2000 resonance units (rU) was generated. The association kinetics were recorded for 3 min in each case at 25° C. and with 6 concentrations (12.5, 25, 50, 100, 200 and 400 nmol/l ) of a monobiotinylated Fab' antibody fragment. In order to investigate the influence of the reverse binding of the antibody, the dissociation kinetics in the absence and presence of 10 μg/ml core streptavidin were compared. The specificity of the binding was shown by an experiment with the same body in a non-biotinylated form (negative control).
The binding constants were determined for the purified streptavidin muteins as well as for streptavidin muteins cross-linked with a polymer (streptavidin-mutein […] serum albumin conjugates, preparation: EP-A-0 092).

avidin: native avidin, amino acid sequence SEQ ID NO.4
binding affinity to biotin (KA) [1]: about 10^15 l/mol

streptavidin: native streptavidin, protein sequence SEQ ID NO.2
binding affinity to biotin (KA) [1]: about 10^15 l/mol

wild-type: recombinant core streptavidin (shortened streptavidin), SEQ ID NO.16, produced per WO 93/09144
KA ([2]; monobiotinylated Fab'): >10^10 1/mol
Koff ([2]; monobiotinylated Fab'): <10^−5 1/s
t/2 diss ([2]; monobiotinylated Fab', cell prints h): >20 h
Kon ([2]; streptavidin sample immobilized, 12.5-400 nmol/l monobiotinylated Fab'): 2.2.10^5 1/mol.s
